Where “and” joins values, the source holds several entries; their conditions need not be identical. Identical values can stand only once. Inconclusive results and toxic doses are left out.

This assay relates to L1210 leukemia ip in BDF1 mice, survival T/C. As to the kind of experiment: NCI In Vivo Anticancer Drug Screen. Data for tumor model L1210 Leukemia (intraperitoneal) in B6D2F1 (BDF1) mice. Conditions: endpoint: mean survival time, higher = longer survival. The essentials:
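Tumor cells were implanted, animals were treated, and survival was followed. The result divides the treated measurement by the vehicle-control measurement.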

Where [1] appears, read: dose: 100.0 mg/kg/injection, schedule: Q04DX003 (ip), vehicle: saline with Tween-80.
Setting [2] is: dose: 200.0 mg/kg/injection, schedule: Q04DX003 (ip), vehicle: saline with Tween-80.
The mark [3] stands for this setting: dose: 400.0 mg/kg/injection, schedule: Q04DX003 (ip), vehicle: saline with Tween-80.
[4] abbreviates: dose: 100.0 mg/kg/injection, schedule: Q01DX009 (ip), vehicle: saline with Tween-80.
[5] abbreviates: dose: 200.0 mg/kg/injection, schedule: Q01DX009 (ip), vehicle: saline with Tween-80.
The mark [6] stands for this setting: dose: 400.0 mg/kg/injection, schedule: Q01DX009 (ip), vehicle: saline with Tween-80.
Where [7] appears, read: dose: 100.0 mg/kg/injection, schedule: Q04DX003 (ip), vehicle: saline.
The mark [8] stands for this setting: dose: 200.0 mg/kg/injection, schedule: Q04DX003 (ip), vehicle: saline.
[9] abbreviates: dose: 400.0 mg/kg/injection, schedule: Q04DX003 (ip), vehicle: saline.
Where [10] appears, read: dose: 100.0 mg/kg/injection, schedule: Q01DX001 (ip), vehicle: carboxymethylcellulose (CMC).
[11] abbreviates: dose: 200.0 mg/kg/injection, schedule: Q01DX001 (ip), vehicle: carboxymethylcellulose (CMC).
[12] abbreviates: dose: 400.0 mg/kg/injection, schedule: Q01DX001 (ip), vehicle: carboxymethylcellulose (CMC).
The mark [13] stands for this setting: dose: 100.0 mg/kg/injection, schedule: Q01DX009 (ip), vehicle: Klucel (hydroxypropylcellulose) (HPC).
[14] abbreviates: dose: 200.0 mg/kg/injection, schedule: Q01DX009 (ip), vehicle: Klucel (hydroxypropylcellulose) (HPC).
Where [15] appears, read: dose: 400.0 mg/kg/injection, schedule: Q01DX009 (ip), vehicle: Klucel (hydroxypropylcellulose) (HPC).

On to `C1=Cc2ccccc2C(c2ccccn2)c2ccccc21`, for which the T/C is 90 % of control (dose: 100.0 mg/kg/injection, schedule: Q04DX003 (ip), vehicle: gum acacia); 97 % of control (dose: 200.0 mg/kg/injection, schedule: Q04DX003 (ip), vehicle: gum acacia); 93 % of control (dose: 400.0 mg/kg/injection, schedule: Q04DX003 (ip), vehicle: gum acacia).

For the compound `CCCCCCCCCCCCCCCCSc1ccc(Br)cc1`, the T/C reads like this: under setting [1], 92 % of control; under setting [2], 102 % of control; under setting [3], 97 % of control.

As for `CCOC(=O)C1C(=O)Nc2c(ccc3ccccc23)N1C(C)=O` (stereo not given), the T/C reads like this: (dose: 50.0 mg/kg/injection, schedule: Q04DX002 (ip), vehicle: Klucel (hydroxypropylcellulose) (HPC)) 96 % of control; (dose: 100.0 mg/kg/injection, schedule: Q04DX002 (ip), vehicle: Klucel (hydroxypropylcellulose) (HPC)) 93 % of control; (dose: 200.0 mg/kg/injection, schedule: Q04DX002 (ip), vehicle: Klucel (hydroxypropylcellulose) (HPC)) 93 % of control.

As for `O=C(OCCCCCCl)c1ccccc1`, the T/C was 100 % of control under setting [4]; 106 % of control under setting [1]; 104 % of control under setting [5]; 97 % of control under setting [2]; 98 % of control under setting [6]; 95 % of control under setting [3].

As for `O=CC1(c2ccccc2)SCCCS1`, the T/C is 106 % of control under setting [7], 97 % of control under setting [8] and 100 % of control under setting [9].

For the compound `COC(=N)Cc1ccc(OC)c(OC)c1`, the T/C was 94 % of control under setting [4], 89 % of control under setting [5] and 92 % of control under setting [6].

For the compound `CC1=CC(=C2C=C(C)C(=O)C(C)=C2)C=C(C)C1=O`, the T/C (dose: 100.0 mg/kg/injection, schedule: Q01DX001 (ip), vehicle: saline with Tween-80) was 87 % of control; the T/C under setting [1] was 94 % of control and 102 % of control; the T/C under setting [2] is 94 % of control and 96 % of control; the T/C (dose: 400.0 mg/kg/injection, schedule: Q01DX001 (ip), vehicle: saline with Tween-80) was 87 % of control; the T/C under setting [3] was 94 % of control and 89 % of control.

Consider `CC(=O)N(c1ccccc1)c1ccc([N+](=O)[O-])cc1[N+](=O)[O-]`, for which the T/C is 107 % of control under setting [10]; 94 % of control and 115 % of control (dose: 177.0 mg/kg/injection, schedule: Q01DX001 (ip), vehicle: carboxymethylcellulose (CMC)); 96 % of control under setting [11]; 97 % of control and 103 % of control (dose: 266.0 mg/kg/injection, schedule: Q01DX001 (ip), vehicle: carboxymethylcellulose (CMC)); 97 % of control and 100 % of control under setting [12]; 100 % of control and 105 % of control (dose: 600.0 mg/kg/injection, schedule: Q01DX001 (ip), vehicle: carboxymethylcellulose (CMC)).

Take `O=C(CCCN1CCC2(CC1)OC(=O)N(c1ccccc1)C2=O)c1ccc(F)cc1`: the T/C (dose: 100.0 mg/kg/injection, schedule: Q04DX003 (ip), vehicle: Klucel (hydroxypropylcellulose) (HPC)) is 89 % of control and the T/C (dose: 200.0 mg/kg/injection, schedule: Q04DX003 (ip), vehicle: Klucel (hydroxypropylcellulose) (HPC)) is 106 % of control.

With `CCC(C(=O)NC(C)c1ccc(-c2ccccc2)cc1)c1ccccc1` (stereo not given), the T/C is 87 % of control under setting [13], 92 % of control under setting [14] and 86 % of control under setting [15].

Turning to `COc1ccc(/C=C/C(=O)c2ccccc2)cc1Br`, the T/C under setting [1] is 100 % of control, the T/C under setting [2] is 96 % of control and the T/C under setting [3] is 96 % of control.

Take `C=CCNc1ncnc2c1ncn2C1OC(CO)C(O)C1O` (stereo not given): the T/C (dose: 9.5 mg/kg/injection, schedule: Q01DX001 (ip), vehicle: other) is 100 % of control; the T/C (dose: 19.0 mg/kg/injection, schedule: Q01DX001 (ip), vehicle: other) was 97 % of control; the T/C (dose: 33.0 mg/kg/injection, schedule: Q01DX009 (ip), vehicle: other) is 104 % of control; the T/C (dose: 38.0 mg/kg/injection, schedule: Q01DX001 (ip), vehicle: other) is 94 % of control; the T/C (dose: 112.0 mg/kg/injection, schedule: Q01DX009 (ip), vehicle: other) is 166 % of control.

For `CC(=O)N1CCc2c(O)cccc2C1`, the T/C was 93 % of control under setting [7], 93 % of control under setting [8] and 102 % of control under setting [9].

On to `COc1ccc(OC)c(NC(=O)Nc2ccc(SC)cc2)c1`, for which the T/C under setting [13] is 96 % of control, the T/C under setting [14] was 90 % of control and the T/C under setting [15] is 98 % of control.

As to `C[Si](C)(C)OCCCCCCCl`, the T/C runs as follows: (dose: 50.0 mg/kg/injection, schedule: Q01DX001 (ip), vehicle: carboxymethylcellulose (CMC)) 108 % of control; under setting [10], 101 % of control; under setting [11], 95 % of control; under setting [12], 103 % of control.

Take `COc1n[n+]([O-])c(Cl)c(C)c1[N+](=O)[O-]`: the T/C is 105 % of control (dose: 100.0 mg/kg/injection, schedule: Q04DX002 (ip), vehicle: saline with Tween-80); 102 % of control (dose: 200.0 mg/kg/injection, schedule: Q04DX002 (ip), vehicle: saline with Tween-80); 96 % of control (dose: 400.0 mg/kg/injection, schedule: Q04DX002 (ip), vehicle: saline with Tween-80).

On to `c1ccc(COCCNCCOCc2ccccc2)cc1`, for which the T/C runs as follows: (dose: 12.5 mg/kg/injection, schedule: Q01DX009 (ip), vehicle: Klucel (hydroxypropylcellulose) (HPC)) 100 % of control; (dose: 12.5 mg/kg/injection, schedule: Q04DX003 (ip), vehicle: Klucel (hydroxypropylcellulose) (HPC)) 107 % of control; (dose: 25.0 mg/kg/injection, schedule: Q01DX009 (ip), vehicle: Klucel (hydroxypropylcellulose) (HPC)) 96 % of control; (dose: 25.0 mg/kg/injection, schedule: Q04DX003 (ip), vehicle: Klucel (hydroxypropylcellulose) (HPC)) 94 % of control; (dose: 50.0 mg/kg/injection, schedule: Q01DX009 (ip), vehicle: Klucel (hydroxypropylcellulose) (HPC)) 95 % of control; (dose: 50.0 mg/kg/injection, schedule: Q04DX003 (ip), vehicle: Klucel (hydroxypropylcellulose) (HPC)) 95 % of control.

Turning to `CC(=O)c1ccc(N2CCN(c3ccc(C(C)=O)cc3)CC2)cc1`, the T/C runs as follows: under setting [7], 93 % of control; under setting [8], 95 % of control; under setting [9], 98 % of control.

As for `CC1(C)CC(=O)C=C(OS(=O)(=O)C(F)(F)F)C1`, the T/C runs as follows: (dose: 12.5 mg/kg/injection, schedule: Q01DX009 (ip), vehicle: DMSO) 110 % of control; (dose: 25.0 mg/kg/injection, schedule: Q01DX009 (ip), vehicle: DMSO) 101 % of control; (dose: 50.0 mg/kg/injection, schedule: Q01DX009 (ip), vehicle: DMSO) 103 % of control; (dose: 100.0 mg/kg/injection, schedule: Q01DX009 (ip), vehicle: DMSO) 94 % of control.

As for `CCN(CCS)Cc1ccccc1`, the T/C reads like this: (dose: 25.0 mg/kg/injection, schedule: Q01DX009 (ip), vehicle: saline with Tween-80) 95 % of control; (dose: 25.0 mg/kg/injection, schedule: Q04DX003 (ip), vehicle: saline with Tween-80) 94 % of control; (dose: 50.0 mg/kg/injection, schedule: Q01DX009 (ip), vehicle: saline with Tween-80) 97 % of control; (dose: 50.0 mg/kg/injection, schedule: Q04DX003 (ip), vehicle: saline with Tween-80) 91 % of control; under setting [4], 95 % of control; under setting [1], 91 % of control.

For the compound `Oc1ccc(/C=N/Nc2nc3ccccc3s2)c(O)c1`, the T/C is 88 % of control (dose: 222.0 mg/kg/injection, schedule: Q01DX Z (ip), vehicle: methylcellulose (MC)); 91 % of control (dose: 333.0 mg/kg/injection, schedule: Q01DX Z (ip), vehicle: methylcellulose (MC)); 94 % of control (dose: 500.0 mg/kg/injection, schedule: Q01DX Z (ip), vehicle: methylcellulose (MC)).

Source of the values: PubChem BioAssay AID248 (DTP/NCI, 2004).
